The target in data set [1] is ABCC1/MRP1 (Homo sapiens, UniProt P33527). The settings on record: Sf9/ABCC1 membrane vesicles.
For data set [2] the following is noted: in patients; lopinavir may reach, ritonavir may peak; ref FDA label 021226s018lbl / EMA Kaletra EPAR scientific discussion; cited from earlier work.

Sequence of ABCC1/MRP1 (P33527 whole entry): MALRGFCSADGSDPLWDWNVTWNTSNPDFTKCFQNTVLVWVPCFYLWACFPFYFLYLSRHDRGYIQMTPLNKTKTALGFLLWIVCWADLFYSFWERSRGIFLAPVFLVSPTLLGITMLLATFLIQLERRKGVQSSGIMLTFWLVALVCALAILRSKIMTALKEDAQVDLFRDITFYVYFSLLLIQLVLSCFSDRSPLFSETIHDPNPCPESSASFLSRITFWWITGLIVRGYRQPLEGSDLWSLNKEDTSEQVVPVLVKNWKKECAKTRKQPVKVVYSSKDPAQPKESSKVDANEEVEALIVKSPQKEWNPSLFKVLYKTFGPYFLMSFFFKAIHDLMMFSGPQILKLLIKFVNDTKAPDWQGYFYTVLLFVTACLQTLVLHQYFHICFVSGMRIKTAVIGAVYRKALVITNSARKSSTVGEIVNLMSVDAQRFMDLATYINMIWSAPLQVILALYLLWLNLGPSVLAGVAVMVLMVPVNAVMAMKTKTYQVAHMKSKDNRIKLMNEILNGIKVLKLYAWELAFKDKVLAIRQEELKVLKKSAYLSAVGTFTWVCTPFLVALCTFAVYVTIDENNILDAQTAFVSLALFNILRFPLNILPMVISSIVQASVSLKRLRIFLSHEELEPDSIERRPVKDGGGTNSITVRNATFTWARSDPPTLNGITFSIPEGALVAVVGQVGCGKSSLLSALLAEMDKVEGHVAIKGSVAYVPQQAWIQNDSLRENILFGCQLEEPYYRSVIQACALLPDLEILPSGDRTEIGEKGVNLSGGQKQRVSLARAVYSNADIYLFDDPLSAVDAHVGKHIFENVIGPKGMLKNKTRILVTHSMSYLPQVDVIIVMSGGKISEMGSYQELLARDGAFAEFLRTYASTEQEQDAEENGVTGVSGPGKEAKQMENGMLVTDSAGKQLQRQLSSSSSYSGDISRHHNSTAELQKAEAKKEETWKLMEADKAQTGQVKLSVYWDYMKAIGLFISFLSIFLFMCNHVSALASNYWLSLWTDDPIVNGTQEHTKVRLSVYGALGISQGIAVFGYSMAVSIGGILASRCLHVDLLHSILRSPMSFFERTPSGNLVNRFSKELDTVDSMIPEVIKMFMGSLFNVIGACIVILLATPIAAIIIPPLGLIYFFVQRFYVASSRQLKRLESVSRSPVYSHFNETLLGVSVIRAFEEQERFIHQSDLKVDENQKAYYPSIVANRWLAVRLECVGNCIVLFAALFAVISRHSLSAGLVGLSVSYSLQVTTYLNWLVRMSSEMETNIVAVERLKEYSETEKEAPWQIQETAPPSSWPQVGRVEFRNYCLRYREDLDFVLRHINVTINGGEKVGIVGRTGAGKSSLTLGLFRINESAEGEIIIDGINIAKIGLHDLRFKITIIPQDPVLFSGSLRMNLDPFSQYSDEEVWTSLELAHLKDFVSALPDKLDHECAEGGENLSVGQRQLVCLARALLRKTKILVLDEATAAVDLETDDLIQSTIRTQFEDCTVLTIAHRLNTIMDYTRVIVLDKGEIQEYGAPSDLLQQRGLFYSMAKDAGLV

`CC(C)c1nc(CN(C)C(=O)N[C@H](C(=O)N[C@@H](Cc2ccccc2)C[C@H](O)[C@H](Cc2ccccc2)NC(=O)OCc2cncs2)C(C)C)cs1` [ritonavir]: the “Effect on ABCC1 vesicular ETGB transport (in words)” value in data set [1] was “practically no effect”. The “Plasma concentration in patients” value in data set [2] is given as “about 1 μM”.

These data come from publication PMC7827085 (Pharmaceutics, 2021).
